Experiments:
Test in all cases: relative viability (nuclei count vs DMSO), 5 days (fraction); higher = more cells survive
[1] = tested on: EPLC-272H
Summary of the method: (§1)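 Lung cancer cell lines in 1536-well plates got either a single drug or a fixed anchor-drug dose together with five library-drug doses (not always all listed) in √10 steps, by pin tool, on the day after seeding. Nuclei were counted after 5 days, and relative viability is the treated-to-vehicle ratio of nuclei counts. Values are medians of duplicate plates.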

[2] = tested on: NCI-H1975
Summary of the method: as §1

[3] = tested on: NCI-H2085
Summary of the method: as §1

[4] = tested on: HARA
Summary of the method: as §1

[5] = tested on: HCC-366
Summary of the method: as §1

[6] = tested on: NCI-H1437
Summary of the method: as §1

[7] = tested on: NCI-H727
Summary of the method: as §1

[8] = tested on: LCLC-103H
Summary of the method: as §1

[9] = tested on: HCC-15
Summary of the method: as §1

[10] = tested on: NCI-H1395
Summary of the method: as §1

[11] = tested on: HCC-78
Summary of the method: as §1

[12] = tested on: HCC-827
Summary of the method: as §1

[13] = tested on: NCI-H2405
Summary of the method: as §1

[14] = tested on: NCI-H1792
Summary of the method: as §1

[15] = tested on: NCI-H1944
Summary of the method: as §1

[16] = tested on: HCC-44
Summary of the method: as §1

[17] = tested on: NCI-H358
Summary of the method: as §1

With `Cc1cnc(-c2cnc(NCCNc3ccc(C#N)cn3)nc2-c2ccc(Cl)cc2Cl)[nH]1` + NC(=O)Nc1cc(-c2cccc(F)c2)sc1C(=O)N[C@H]1CCCNC1 [AZD7762] (partner 0.2 µM) the relative viability ([1]; first compound 0.08 µM) was 0.36, the relative viability ([1]; first compound 0.253 µM) was 0.269 and the relative viability ([1]; first compound 0.8 µM) was 0.224. For the same compound, the relative viability ([1]; first compound 2.53 µM) was 0.202, the relative viability ([2]; first compound 0.08 µM) was 0.818 and the relative viability ([2]; first compound 0.253 µM) was 0.583. For the same compound, the relative viability ([2]; first compound 0.8 µM) was 0.575, the relative viability ([2]; first compound 2.53 µM) was 0.506 and the relative viability ([3]; first compound 0.08 µM) was 1.02. The relative viability ([3]; first compound 0.253 µM) was 0.77, the relative viability ([3]; first compound 0.8 µM) was 0.901 and the relative viability ([3]; first compound 2.53 µM) was 1.05. For the same compound, the relative viability ([4]; first compound 0.08 µM) was 0.297, the relative viability ([4]; first compound 0.253 µM) was 0.191 and the relative viability ([4]; first compound 0.8 µM) was 0.37. The relative viability ([4]; first compound 2.53 µM) was 1, the relative viability ([5]; first compound 0.08 µM) was 0.284 and the relative viability ([5]; first compound 0.253 µM) was 0.202. The relative viability ([5]; first compound 0.8 µM) was 0.197, the relative viability ([5]; first compound 2.53 µM) was 0.0746 and the relative viability ([6]; first compound 0.08 µM) was 1.17. The relative viability ([6]; first compound 0.253 µM) was 1.06, the relative viability ([6]; first compound 0.8 µM) was 1.06 and the relative viability ([6]; first compound 2.53 µM) was 1.01. For the same compound, the relative viability ([7]; first compound 0.08 µM) was 0.621, the relative viability ([7]; first compound 0.253 µM) was 0.547 and the relative viability ([7]; first compound 0.8 µM) was 0.574. It also gave a relative viability ([7]; first compound 2.53 µM) of 0.651, a relative viability ([8]; first compound 0.08 µM) of 0.86 and a relative viability ([8]; first compound 0.253 µM) of 0.76. It also gave a relative viability ([8]; first compound 0.8 µM) of 0.714, a relative viability ([8]; first compound 2.53 µM) of 0.757 and a relative viability ([9]; first compound 0.08 µM) of 1.17. The relative viability ([9]; first compound 0.253 µM) was 0.968, the relative viability ([9]; first compound 0.8 µM) was 1.2 and the relative viability ([9]; first compound 2.53 µM) was 1.13. For the same compound, the relative viability ([10]; first compound 0.08 µM) was 0.425, the relative viability ([10]; first compound 0.253 µM) was 0.43 and the relative viability ([10]; first compound 0.8 µM) was 0.4. It also gave a relative viability ([10]; first compound 2.53 µM) of 0.374, a relative viability ([11]; first compound 0.08 µM) of 0.582 and a relative viability ([11]; first compound 0.253 µM) of 0.582. The relative viability ([11]; first compound 0.8 µM) was 0.604, the relative viability ([11]; first compound 2.53 µM) was 0.606 and the relative viability ([12]; first compound 0.08 µM) was 0.242. For the same compound, the relative viability ([12]; first compound 0.253 µM) was 0.169, the relative viability ([12]; first compound 0.8 µM) was 0.193 and the relative viability ([12]; first compound 2.53 µM) was 0.171. For the same compound, the relative viability ([13]; first compound 0.08 µM) was 0.758, the relative viability ([13]; first compound 0.253 µM) was 0.595 and the relative viability ([13]; first compound 0.8 µM) was 0.744. The relative viability ([13]; first compound 2.53 µM) was 0.333, the relative viability ([14]; first compound 0.08 µM) was 0.8 and the relative viability ([14]; first compound 0.253 µM) was 0.611. For the same compound, the relative viability ([14]; first compound 0.8 µM) was 0.594, the relative viability ([14]; first compound 2.53 µM) was 0.446 and the relative viability ([15]; first compound 0.08 µM) was 0.668. The relative viability ([15]; first compound 0.8 µM) was 0.488, the relative viability ([15]; first compound 2.53 µM) was 0.521 and the relative viability ([16]; first compound 0.08 µM) was 1.05. For the same compound, the relative viability ([16]; first compound 0.253 µM) was 1.02, the relative viability ([16]; first compound 0.8 µM) was 1.06 and the relative viability ([16]; first compound 2.53 µM) was 1.15. For the same compound, the relative viability ([17]; first compound 0.08 µM) was 0.529, the relative viability ([17]; first compound 0.253 µM) was 0.5 and the relative viability ([17]; first compound 0.8 µM) was 0.478. The relative viability ([17]; first compound 2.53 µM) was 0.47.

In the case of `O=c1[nH]c2ccccc2n1C1CCN(CCCC(c2ccc(F)cc2)c2ccc(F)cc2)CC1` [Pimozide] + NC(=O)Nc1cc(-c2cccc(F)c2)sc1C(=O)N[C@H]1CCCNC1 [AZD7762] (partner 0.2 µM), the relative viability ([1]; first compound 0.08 µM) was 0.229, the relative viability ([1]; first compound 0.253 µM) was 0.163 and the relative viability ([1]; first compound 0.8 µM) was 0.265. For the same compound, the relative viability ([1]; first compound 2.53 µM) was 0.289, the relative viability ([1]; first compound 8 µM) was 0.282 and the relative viability ([2]; first compound 0.08 µM) was 0.691. For the same compound, the relative viability ([2]; first compound 0.253 µM) was 0.635, the relative viability ([2]; first compound 0.8 µM) was 0.684 and the relative viability ([2]; first compound 2.53 µM) was 0.649. The relative viability ([2]; first compound 8 µM) was 0.766, the relative viability ([3]; first compound 0.08 µM) was 0.937 and the relative viability ([3]; first compound 0.253 µM) was 0.971. For the same compound, the relative viability ([3]; first compound 0.8 µM) was 0.922, the relative viability ([3]; first compound 2.53 µM) was 1.07 and the relative viability ([3]; first compound 8 µM) was 0.953. For the same compound, the relative viability ([4]; first compound 0.08 µM) was 0.21, the relative viability ([4]; first compound 0.253 µM) was 0.48 and the relative viability ([4]; first compound 0.8 µM) was 0.318. The relative viability ([4]; first compound 2.53 µM) was 0.197, the relative viability ([4]; first compound 8 µM) was 0.37 and the relative viability ([5]; first compound 0.08 µM) was 0.263. It also gave a relative viability ([5]; first compound 0.253 µM) of 0.258, a relative viability ([5]; first compound 0.8 µM) of 0.211 and a relative viability ([5]; first compound 2.53 µM) of 0.246. For the same compound, the relative viability ([5]; first compound 8 µM) was 0.253, the relative viability ([6]; first compound 0.08 µM) was 1.14 and the relative viability ([6]; first compound 0.253 µM) was 1.09. It also gave a relative viability ([6]; first compound 0.8 µM) of 1.03, a relative viability ([6]; first compound 2.53 µM) of 1.05 and a relative viability ([6]; first compound 8 µM) of 1.09. The relative viability ([7]; first compound 0.08 µM) was 0.496, the relative viability ([7]; first compound 0.253 µM) was 0.581 and the relative viability ([7]; first compound 0.8 µM) was 0.596. It also gave a relative viability ([7]; first compound 2.53 µM) of 0.613, a relative viability ([7]; first compound 8 µM) of 0.525 and a relative viability ([8]; first compound 0.08 µM) of 0.743. For the same compound, the relative viability ([8]; first compound 0.253 µM) was 0.778, the relative viability ([8]; first compound 0.8 µM) was 0.733 and the relative viability ([8]; first compound 2.53 µM) was 0.802. The relative viability ([8]; first compound 8 µM) was 0.686, the relative viability ([9]; first compound 0.08 µM) was 1.36 and the relative viability ([9]; first compound 0.253 µM) was 0.545. For the same compound, the relative viability ([9]; first compound 2.53 µM) was 1.2, the relative viability ([9]; first compound 8 µM) was 1.16 and the relative viability ([10]; first compound 0.08 µM) was 0.369. It also gave a relative viability ([10]; first compound 0.253 µM) of 0.42, a relative viability ([10]; first compound 0.8 µM) of 0.417 and a relative viability ([10]; first compound 2.53 µM) of 0.389. The relative viability ([10]; first compound 8 µM) was 0.394, the relative viability ([11]; first compound 0.08 µM) was 0.547 and the relative viability ([11]; first compound 0.8 µM) was 0.607. For the same compound, the relative viability ([11]; first compound 2.53 µM) was 0.55, the relative viability ([11]; first compound 8 µM) was 0.6 and the relative viability ([12]; first compound 0.253 µM) was 0.2. The relative viability ([12]; first compound 0.8 µM) was 0.211, the relative viability ([12]; first compound 2.53 µM) was 0.236 and the relative viability ([12]; first compound 8 µM) was 0.28. It also gave a relative viability ([13]; first compound 0.08 µM) of 0.741, a relative viability ([13]; first compound 0.253 µM) of 0.716 and a relative viability ([13]; first compound 0.8 µM) of 0.673. For the same compound, the relative viability ([13]; first compound 2.53 µM) was 0.608, the relative viability ([13]; first compound 8 µM) was 0.426 and the relative viability ([14]; first compound 0.08 µM) was 0.793. It also gave a relative viability ([14]; first compound 0.253 µM) of 0.733, a relative viability ([14]; first compound 0.8 µM) of 0.679 and a relative viability ([14]; first compound 2.53 µM) of 0.748. It also gave a relative viability ([14]; first compound 8 µM) of 0.5, a relative viability ([15]; first compound 0.08 µM) of 0.659 and a relative viability ([15]; first compound 2.53 µM) of 0.443. It also gave a relative viability ([15]; first compound 8 µM) of 0.524, a relative viability ([16]; first compound 0.08 µM) of 1.01 and a relative viability ([16]; first compound 0.253 µM) of 0.992. The relative viability ([16]; first compound 0.8 µM) was 0.849, the relative viability ([16]; first compound 2.53 µM) was 0.98 and the relative viability ([16]; first compound 8 µM) was 0.971. It also gave a relative viability ([17]; first compound 0.08 µM) of 0.565, a relative viability ([17]; first compound 0.253 µM) of 0.67 and a relative viability ([17]; first compound 0.8 µM) of 0.625. The relative viability ([17]; first compound 2.53 µM) was 0.508 and the relative viability ([17]; first compound 8 µM) was 0.505.

— the supplement of paper PMC10307832
